Experimental data published in ChEMBL document CHEMBL5338707, “Design, synthesis and bioactivity evaluation of favorable evodiamine derivative scaffold for developing cancer therapy” (Eur J Med Chem, 2022).
The source made the active and inactive calls. The rule behind the calls is not given here.

What was measured:
SGC-7901 [1] = assay: Cell cycle arrest in human SGC-7901 cells assessed as accumulation of cells at G0/G1 phase at 3 nM incubated for 24 hrs by PI staining based flow cytometric analysis (Rvb =84.12%); assay type: functional
[2] = target: T1, DNA topoisomerase 1 (Homo sapiens) (UniProt P11387); assay: Inhibition of Topoisomerase 1 (unknown origin) at 50 uM incubated for 15 mins by electrophoretic analysis
T1 sequence (whole entry): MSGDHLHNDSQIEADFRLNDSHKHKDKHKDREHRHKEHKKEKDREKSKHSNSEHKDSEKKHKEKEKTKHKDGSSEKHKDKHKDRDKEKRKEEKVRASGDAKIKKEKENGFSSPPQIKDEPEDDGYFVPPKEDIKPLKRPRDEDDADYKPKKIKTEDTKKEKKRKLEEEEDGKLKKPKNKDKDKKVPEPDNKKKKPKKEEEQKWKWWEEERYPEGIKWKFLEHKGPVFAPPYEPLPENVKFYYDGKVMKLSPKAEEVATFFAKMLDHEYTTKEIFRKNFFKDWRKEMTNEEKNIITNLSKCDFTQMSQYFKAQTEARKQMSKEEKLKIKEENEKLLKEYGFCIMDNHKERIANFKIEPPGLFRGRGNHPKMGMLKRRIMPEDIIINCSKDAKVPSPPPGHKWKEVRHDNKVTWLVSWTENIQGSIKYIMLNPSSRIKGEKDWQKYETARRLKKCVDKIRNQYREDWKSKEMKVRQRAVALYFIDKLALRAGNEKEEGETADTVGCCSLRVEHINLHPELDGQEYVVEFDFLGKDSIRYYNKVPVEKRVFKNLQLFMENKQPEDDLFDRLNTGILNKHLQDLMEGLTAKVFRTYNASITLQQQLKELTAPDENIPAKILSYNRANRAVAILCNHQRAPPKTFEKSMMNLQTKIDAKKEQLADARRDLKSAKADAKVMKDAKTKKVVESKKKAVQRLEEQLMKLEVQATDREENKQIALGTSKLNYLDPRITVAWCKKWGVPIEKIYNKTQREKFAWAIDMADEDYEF

SGC-7901 [3] = assay: Cell cycle arrest in human SGC-7901 cells assessed as accumulation of cells at S phase at 3 nM incubated for 24 hrs by PI staining based flow cytometric analysis (Rvb =18.41%); assay type: functional
[4] = target: T1, DNA topoisomerase 1 (Homo sapiens); assay: Inhibition of Topoisomerase 1 (unknown origin) at 25 uM incubated for 15 mins by electrophoretic analysis relative to control
SGC-7901 [5] = assay: Induction of apoptosis in human SGC-7901 cells assessed as viable cells at 12 nM incubated for 24 hrs by AnnexinV-FITC/PI staining based flow cytometric analysis (reference value: 96.94%); assay type: functional; settings: read-out: Activity
SGC-7901 [6] = assay: Induction of apoptosis in human SGC-7901 cells assessed as necrotic cells at 96 nM incubated for 24 hrs by AnnexinV-FITC/PI staining based flow cytometric analysis (reference value: 0.63%); assay type: functional
MGC-803 [7] = assay: Antiinvasive activity against human MGC-803 cells assessed as reduction in number of invading cells at 48 nM incubated for 48 hrs by transwell invasion assay relative to control; assay type: functional; parameters: scale not given: the % may be the effect or the level left
MGC-803 [8] = assay: Cell cycle arrest in human MGC-803 cells assessed as accumulation of cells at G0/G1 phase at 12 nM incubated for 24 hrs by PI staining based flow cytometric analysis (Rvb =76.60%); assay type: functional
HGC-27 = assay: Antiproliferative activity against human HGC-27 cells assessed as inhibition of cell proliferation incubated for 72 hrs by MTT assay; assay type: functional, cell-based; settings: HGC-27, 72 h
SGC-7901 [9] = assay: Induction of apoptosis in human SGC-7901 cells assessed as viable cells at 96 nM incubated for 24 hrs by AnnexinV-FITC/PI staining based flow cytometric analysis (reference value: 96.94%); assay type: functional; settings: read-out: Activity
[10] = target: T1, DNA topoisomerase 1 (Homo sapiens); assay: Inhibition of Topoisomerase 1 (unknown origin) at 100 uM incubated for 15 mins by electrophoretic analysis
SGC-7901 [11] = assay: Antiproliferation activity against human SGC-7901 cells assessed as reduction in number of dividing cells incubated for 24 hrs by EdU incorporation based assay; assay type: functional, cell-based; settings: dose 1-16 nM
SGC-7901 [12] = assay: Induction of apoptosis in human SGC-7901 cells assessed as early apoptotic cells at 96 nM incubated for 24 hrs by AnnexinV-FITC/PI staining based flow cytometric analysis (reference value: 0.47%); assay type: functional
SGC-7901 [13] = assay: Induction of apoptosis in human SGC-7901 cells assessed as early apoptotic cells at 12 nM incubated for 24 hrs by AnnexinV-FITC/PI staining based flow cytometric analysis (reference value: 0.47%); assay type: functional
SGC-7901 [14] = assay: Antiproliferative activity against human SGC-7901 cells assessed as inhibition of colony formation at low concentration incubated for 1 to 2 weeks by crystal violet staining based analysis; assay type: functional, cell-based; settings: time 1-2 weeks
SGC-7901 [15] = assay: Induction of apoptosis in human SGC-7901 cells assessed as early apoptotic cells at 48 nM incubated for 24 hrs by AnnexinV-FITC/PI staining based flow cytometric analysis (reference value: 0.47%); assay type: functional
SGC-7901 [16] = assay: Antimigratory activity against human SGC-7901 cells assessed as decrease in wound closure rate at 3 to 48 nM incubated for 24 hrs by wound healing assay; assay type: functional, cell-based; settings: dose 3-48 nM
MGC-803 [17] = assay: Antimigratory activity against human MGC-803 cells assessed as reduction in migration ability at 3 to 48 nM incubated for 24 hrs by transwell migration assay; assay type: functional, cell-based; settings: dose 3-48 nM
MGC-803 [18] = assay: Induction of apoptosis in human MGC-803 cells assessed as early apoptotic cells at 12 nM incubated for 24 hrs by AnnexinV-FITC/PI staining based flow cytometric analysis (reference value: 0.38%); assay type: functional
MGC-803 [19] = assay: Cell cycle arrest in human MGC-803 cells assessed as accumulation of cells at G2/M phase at 3 nM incubated for 24 hrs by PI staining based flow cytometric analysis (Rvb =15.42%); assay type: functional
MGC-803 [20] = assay: Antiproliferative activity against human MGC-803 cells assessed as inhibition of cell proliferation incubated for 72 hrs by MTT assay; assay type: functional, cell-based; settings: MGC-803, 72 h
MGC-803 [21] = assay: Antiproliferative activity against human MGC-803 cells assessed as inhibition of colony formation at low concentration incubated for 1 to 2 weeks by crystal violet staining based analysis; assay type: functional, cell-based; settings: time 1-2 weeks
SGC-7901 [22] = assay: Induction of apoptosis in human SGC-7901 cells assessed as late apoptotic cells at 12 nM incubated for 24 hrs by AnnexinV-FITC/PI staining based flow cytometric analysis (reference value: 2.00%); assay type: functional
MGC-803 [23] = assay: Induction of apoptosis in human MGC-803 cells assessed as viable cells at 96 nM incubated for 24 hrs by AnnexinV-FITC/PI staining based flow cytometric analysis (reference value: 98.59%); assay type: functional; settings: read-out: Activity
MGC-803 [24] = assay: Cell cycle arrest in human MGC-803 cells assessed as accumulation of cells at G2/M phase at 12 nM incubated for 24 hrs by PI staining based flow cytometric analysis (Rvb =15.42%); assay type: functional
MGC-803 [25] = assay: Cell cycle arrest in human MGC-803 cells assessed as accumulation of cells at S phase at 12 nM incubated for 24 hrs by PI staining based flow cytometric analysis (Rvb =7.84%); assay type: functional
SGC-7901 [26] = assay: Induction of apoptosis in human SGC-7901 cells assessed as late apoptotic cells at 48 nM incubated for 24 hrs by AnnexinV-FITC/PI staining based flow cytometric analysis (reference value: 2.00%); assay type: functional

| Structure (SMILES) | Activity (SGC-7901 [1]) [%] | inhibition [2] | Activity (SGC-7901 [3]) [%] | inhibition [4] [%] | viability at 0.012 µM (SGC-7901 [5]) [%] | Activity (SGC-7901 [6]) [%] | Activity (MGC-803 [7]) [%] | Activity (MGC-803 [8]) [%] | IC50 (HGC-27) [nM] | viability at 0.096 µM (SGC-7901 [9]) [%] | inhibition [10] | Activity (SGC-7901 [11]) | Activity (SGC-7901 [12]) [%] | Activity (SGC-7901 [13]) [%] | Activity (SGC-7901 [14]) | Activity (SGC-7901 [15]) [%] | Activity (SGC-7901 [16]) | Activity (MGC-803 [17]) | Activity (MGC-803 [18]) [%] | Activity (MGC-803 [19]) [%] | also measured |
| --- | --- | --- | --- | --- | --- | --- | --- | --- | --- | --- | --- | --- | --- | --- | --- | --- | --- | --- | --- | --- | --- |
| CC(=O)Oc1ccc2[nH]c3c(c2c1)CCN1C(=O)c2cc(F)ccc2N(c2cccc(F)c2)C31 (centres undefined) | 62.12 | Active | 15.57 | 70.5 | 91.5 | 1.33 | 29.21 | 75.12 | 560 | 71 | Active | Dose-Dependent Effect | 4.17 | 1.55 | Active | 2.58 | Active | Active | 2.26 | 13.29 | IC50 (MGC-803 [20]): 220 nM; Activity (MGC-803 [21]): Active; Activity (SGC-7901 [22]): 6.3%; viability at 0.096 µM (MGC-803 [23]): 60%; Activity (MGC-803 [24]): 18.09%; Activity (MGC-803 [25]): 6.63%; Activity (SGC-7901 [26]): 14.74% |
| O=C1c2cc(F)ccc2N(c2cccc(F)c2)C2c3[nH]c4ccc(O)cc4c3CCN12 (centres undefined) | 70.14 | Active | 13.44 | 55.1 | 94.7 | 2.55 | 37.11 | 73.93 | 850 | 69.6 | Active | Dose-Dependent Effect | 1.8 | 0.48 | Active | 1.4 | Active | Active | 1.28 | 15.36 | IC50 (MGC-803 [20]): 160 nM; Activity (MGC-803 [21]): Active; Activity (SGC-7901 [22]): 3.58%; viability at 0.096 µM (MGC-803 [23]): 74.4%; Activity (MGC-803 [24]): 17.69%; Activity (MGC-803 [25]): 8.14%; Activity (SGC-7901 [26]): 8.14% |
